This is an account of results in patent US6177475A, “Methods of using integrin modulators for treatment of inflammation” (priority 1997, dated 2001).

For series [1], the system named is SupT1LAV-BRU cells / SupT1 cells (HIV-1LAV-BRU). The series can be described thus: HIV-induced syncytium formation, SupT1LAV-BRU donor with SupT1 recipient. It counts as cell-based. To be noted: Human immunodeficiency virus 1, SUP-T1, 16 h, read-out: IC50 of Ajoene, syncytium formation. As to the method: Chronically infected and uninfected cell lines (HIV donors and targets, respectively) were maintained as suspension cultures in RPNI-1640 medium supplemented with 10% (v/v) heat-inactivated fetal calf serum, 50 micrograms/ml gentamycin and 2 mM L-glutamine. HIV donors used were (1) a cloned population of H9 cells harboring the genome of HIV-1RF (H9RF cells); and (2) a cloned population of SupT1 cells harboring the genome of HIV-1LAV-BRU (SupT1LAV-BRU cells). To assess the effect of Ajoene on syncytium formation, the donors were mixed with their respective recipients, H9 and SupT1, at a ratio of 1:2 in 96-well flat-bottomed plates (3×10^5 cells per well). Log 10 dilutions of Ajoene were then introduced into the wells, and the cells were cocultured for 16 h. Control wells received the vehicle of Ajoene. By the end of the incubation period syncytia were counted, and the values of IC50 for Ajoene were calculated by plotting relative amounts of syncytia (percent of the syncytia formed in the absence of the compound) against Ajoene concentration.

For the next series, the system named is HIV-1LAV-BRU 1. The series can be described thus: HIV-1LAV-BRU 1 replication in CEM13 cells (HIV antigens by solid phase immunoassay). Format: cell-based. Particulars: for pIC50: Human immunodeficiency virus 1, CEM13 cells.
Another series deals with sperm cells. It counts as cell-based, human. Particulars: 200 micromoles per l. As to the method: Human sperm was from a donor with known fertility (No. 113). The sample (freshly taken) was allowed to liquefy, was diluted 3:1 with BWW/HSA, was centrifuged at 325×g for 5 minutes, and was washed once with the same medium. A small portion of the original sample was analyzed (computer-assisted sperm analysis) using the Cell-Soft package. The pellet of washed sperm cells was subjected to the swim-up procedure (1 ml of the medium was added for this purpose). The swim-up was collected (about 0.5 ml), the cells were counted (Makler chamber), and their motility determined (%). The volume of the sample was adjusted with the medium to give 10^7 cells per ml, and the samples were incubated overnight (18 hours) at 37° C. for capacitation. Thereafter, motility and cell density were determined once again, and the sample was divided into three equal portions, each to be subjected to appropriate treatment.
Equivalent volumes of ethanol and BWW/HSA were added to the two control portions of each cell type (vehicle control and untreated cells, respectively).

For another series, the system named is VLA-4 (VCAM-1). The series can be described thus: Adhesion of TPA-activated Jurkat cells to SVT2/VCAM-1 monolayers. It counts as cell-based. To be noted: Homo sapiens, 0.75 h, SVT2/VCAM-1, TPA 125 ng/ml, 45 min. As to the method: SVT2 cells transfected with human ICAM-1 or VCAM-1 (SVT2/ICAM-1 and […], respectively) were plated into 96-well plates and cultured overnight. […] The labeled Jurkat cells were washed three times and resuspended at a density of 4×10^6 cells/ml in complete RPMI medium. Serial dilutions of Ajoene were prepared in complete RPMI medium. Aliquots of the cells (0.5 ml) were then mixed with an equal volume of Ajoene dilutions (1:1 v/v), and the mixtures incubated at 37° C. for 30 min. Thereafter, Ajoene-incubated cells were added in duplicate to SVT2/ICAM-1 and SVT2/VCAM-1 monolayers, and TPA was introduced into each well to the final concentration of 125 ng/ml. The plates were incubated at 37° C. for 45 min, after which the non-adherent cells were removed by washing with warm complete RPMI medium. The bound labeled cells were lysed by adding 1% Triton X-100 solution in 0.1 N HCl. The lysates were assayed in a gamma counter to determine the percentage of bound cells. […] Thus, coculturing of Jurkat cells with SVT2/ICAM-1 and SVT2/VCAM-1 cells makes it possible to assess, respectively, the function of IFA-1 and VLA-4 under identical conditions. In the absence of TPA, 10 and 20% of the added Jurkat cells adhered to SVT2/ICAM-1 and SVT2/VCAM-1 cells, respectively. […]

A further series relates to VLA-4 (CS-1). Put plainly: VLA-4-dependent adhesion of Jurkat and MV3 cells to CS-1. Format: cell-based, human. To be noted: in this concentration range. The protocol:
Microtiter plates were coated with ligands of the integrin VLA-4, i.e., recombinant human VCAM-1 (500 nanograms per well) or the fragment of connective segment of human fibronectin (CS-1), covalently attached to ovalbumin (5 micrograms per well) by overnight incubation (4° C.) with solutions of the proteins in phosphate-buffered saline (PBS). The plates were blocked with 1% bovine serum albumin (BSA) in Hanks' buffered salt solution (HBSS-BSA). The cells (Jurkat or human melanoma MV3) were labeled with the fluorescent dye 5-chloromethylfluorescein diacetate (CMFDA) and introduced into the wells of the plates (10^5 cells per well) together with varying amounts of Ajoene. After incubation at 37° C. for 1 h, the unbound cells were removed by aspiration and the wells washed four times with HBSS-BSA. Thereafter, the bound cells were lysed with 0.5% Triton X-100, and the fluorescence was measured using a Cytofluor 2300 plate reader. The number of adherent cells was calculated from a standard dilution curve of Triton X-100 lysates of the CMFDA-labeled cells.

Series [2] relates to human sperm / zona-free hamster oocytes. The series can be described thus: Hamster oocyte penetration assay with capacitated human sperm. It counts as cell-based. To be noted: 200 micromoles per l; 30 min pretreatment of sperm and oocytes. The protocol:
The activity of Ajoene in the hamster oocyte penetration assay was tested. This assay is routinely used to test the ability of capacitated human sperm to penetrate oocytes.
To obtain oocytes, mature hamsters (on day 1 of the estrous cycle) were injected intraperitoneally with 40 International Units (IU) pregnant mare serum gonadotropin (PMSG), followed by 40 IU human chorionic gonadotropin (HCG) 55 hours late. After 16 hours, the animals were sacrificed by intracardiac injection of 0.1 ml T61 (euthanizing agent), the oviducts were removed, and the cumulus mass was collected. Cumulus cells were removed by hyaluronidase treatment, and the freed oocytes were transferred into a watchglass containing 3 ml Biggers-Whitter-Whittingham (BWW) medium supplemented with human serum albumin (HSA) (BWW/HSA; pH 7.5). […]
Human sperm was from a donor with known fertility (No. 113). […] A small portion of the original sample was analyzed (computer-assisted sperm analysis) using the Cell-Soft package. […] The swim-up was collected (about 0.5 ml), the cells were counted (Makler chamber), and their motility determined (%). […] Thereafter, motility and cell density were determined once again, and the sample was divided into three equal portions, each to be subjected to appropriate treatment. […]

The structures appear in SMILES notation. pIC50: −log10 of the molar value. Like-named read-outs stand apart in the source and are kept apart here.

With `C=CCSSC=CC[S+]([O-])CC=C` (centres unmarked) [Ajoene, 4,5,9-trithiadodeca-1,6,11-triene-9-oxide], the pIC50 in series [1] was about 8.30; with HIV-1LAV-BRU 1 (HIV-1Lav-BRU1, read-out: IC50 of HIV replication (FIG. 1, curve 2)) it was about 5.30; with HIV-1LAV-BRU 1 (m.o.i. 0.1, 72 h, read-out: IC50 for HIV-1LAV-BRU 1 replication), about 5.30; in the series with VLA-4 (VCAM-1), about 4.70. Besides, the “inhibition of HIV replication, stepwise addition” value with HIV-1LAV-BRU 1 (50 nanomoles per liter per 12 h, total 0.25 micromoles per liter, m.o.i. 0.1, 72 h) came out at 30%. For the same compound, in the series on sperm cells, the “toxicity or impaired cellular vitality (motility of sperm cells)” value is reported as “not associated with toxicity or impaired cellular vitality”. Further, the “inhibition of adhesion to CS-1” value in the series on VLA-4 (CS-1) is listed as “no inhibition of adhesion to CS-1 could be detected”. For the same compound, the “Penetration (penetrated oocytes / total oocytes)” value in series [2] was determined as 0%.

As a reminder, the pIC50 is the IC50 on a negative log10 scale, so that one unit is a factor of ten.
